One test relates to RERF-LC-KJ. The experiment in a line: relative viability (nuclei count vs DMSO), 5 days (fraction); higher = more cells survive. The conditions noted are these: first compound 0.08 µM. Put shortly: (§1)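 Cells from lung cancer lines were seeded into 1536-well plates and, one day later, dosed by pin tool. Treatments were either a single drug or a fixed dose of an anchor drug with five library-drug doses (not always all listed) in √10 steps. After 5 days, nuclei were stained in a one-step fixation (final 0.05% Triton X-100, 1% formaldehyde, 1 ug/ml Hoechst) and counted on 4× images, and relative viability is the treated-to-vehicle nuclei ratio, as the median of duplicate plates.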
The molecule `C=C1C(=O)O[C@@H](CCCCCCCC)[C@@H]1C(=O)O` [C-75] + Nc1nc2[nH]cc(CCc3ccc(C(=O)N[C@@H](CCC(=O)O)C(=O)O)cc3)c2c(=O)[nH]1 [Pemetrexed] (partner 0.2 µM) registered a relative viability of 0.456.
On the same count and under the same terms, the result for `Oc1nc(-c2ccc(C(F)(F)F)cc2)nc2c1CSCC2` [XAV939] + O=C(c1cc(Cc2n[nH]c(=O)c3ccccc23)ccc1F)N1CCN(C(=O)C2CC2)CC1 [Olaparib] (partner 8 µM) reads 0.868.
Turning to `Oc1nc(-c2ccc(C(F)(F)F)cc2)nc2c1CSCC2` [XAV939] + CC(=O)c1c(C)c2cnc(Nc3ccc(N4CCNCC4)cn3)nc2n(C2CCCC2)c1=O [Palbociclib] (partner 0.5 µM), the relative viability stood at 1.13.
For the molecule `C=C1C(=O)O[C@@H](CCCCCCCC)[C@@H]1C(=O)O` [C-75] + CC(=O)c1c(C)c2cnc(Nc3ccc(N4CCNCC4)cn3)nc2n(C2CCCC2)c1=O [Palbociclib] (partner 0.5 µM), the relative viability was determined as 1.06.

Still in this test, the particulars now being: first compound 0.253 µM.
In turn, `Oc1nc(-c2ccc(C(F)(F)F)cc2)nc2c1CSCC2` [XAV939] + O=C(CCCCCCC(=O)Nc1ccccc1)NO [Vorinostat] (partner 1 µM) yielded a relative viability of 0.609.
On to `C=C1C(=O)O[C@@H](CCCCCCCC)[C@@H]1C(=O)O` [C-75] + Nc1nc2[nH]cc(CCc3ccc(C(=O)N[C@@H](CCC(=O)O)C(=O)O)cc3)c2c(=O)[nH]1 [Pemetrexed] (partner 0.2 µM), for which the relative viability is 0.487.
On the same count and under the same terms, the result for `Oc1nc(-c2ccc(C(F)(F)F)cc2)nc2c1CSCC2` [XAV939] + O=C(c1cc(Cc2n[nH]c(=O)c3ccccc23)ccc1F)N1CCN(C(=O)C2CC2)CC1 [Olaparib] (partner 8 µM) reads 0.763; that for `Oc1nc(-c2ccc(C(F)(F)F)cc2)nc2c1CSCC2` [XAV939] + CC(=O)c1c(C)c2cnc(Nc3ccc(N4CCNCC4)cn3)nc2n(C2CCCC2)c1=O [Palbociclib] (partner 0.5 µM), 0.828.
In turn, `C=C1C(=O)O[C@@H](CCCCCCCC)[C@@H]1C(=O)O` [C-75] + CC(=O)c1c(C)c2cnc(Nc3ccc(N4CCNCC4)cn3)nc2n(C2CCCC2)c1=O [Palbociclib] (partner 0.5 µM) gave a relative viability of 1.12.

The test is the same for the next values; noted with them: first compound 0.8 µM.
As for `Oc1nc(-c2ccc(C(F)(F)F)cc2)nc2c1CSCC2` [XAV939] + O=C(CCCCCCC(=O)Nc1ccccc1)NO [Vorinostat] (partner 1 µM), the relative viability came to 0.643.
Turning to `C=C1C(=O)O[C@@H](CCCCCCCC)[C@@H]1C(=O)O` [C-75] + Nc1nc2[nH]cc(CCc3ccc(C(=O)N[C@@H](CCC(=O)O)C(=O)O)cc3)c2c(=O)[nH]1 [Pemetrexed] (partner 0.2 µM), the relative viability was 0.469.
In the case of `Oc1nc(-c2ccc(C(F)(F)F)cc2)nc2c1CSCC2` [XAV939] + O=C(c1cc(Cc2n[nH]c(=O)c3ccccc23)ccc1F)N1CCN(C(=O)C2CC2)CC1 [Olaparib] (partner 8 µM), the relative viability amounted to 0.617.
The same measure, in the same setting: the figure for `Oc1nc(-c2ccc(C(F)(F)F)cc2)nc2c1CSCC2` [XAV939] + CC(=O)c1c(C)c2cnc(Nc3ccc(N4CCNCC4)cn3)nc2n(C2CCCC2)c1=O [Palbociclib] (partner 0.5 µM) is 1.02; for `C=C1C(=O)O[C@@H](CCCCCCCC)[C@@H]1C(=O)O` [C-75] + CC(=O)c1c(C)c2cnc(Nc3ccc(N4CCNCC4)cn3)nc2n(C2CCCC2)c1=O [Palbociclib] (partner 0.5 µM) it is 1.07.

The same test, now with this note: first compound 2.53 µM.
Consider `Oc1nc(-c2ccc(C(F)(F)F)cc2)nc2c1CSCC2` [XAV939] + O=C(CCCCCCC(=O)Nc1ccccc1)NO [Vorinostat] (partner 1 µM), for which the relative viability came out at 0.368.
On to `C=C1C(=O)O[C@@H](CCCCCCCC)[C@@H]1C(=O)O` [C-75] + Nc1nc2[nH]cc(CCc3ccc(C(=O)N[C@@H](CCC(=O)O)C(=O)O)cc3)c2c(=O)[nH]1 [Pemetrexed] (partner 0.2 µM), for which the relative viability amounted to 0.46.
The molecule `Oc1nc(-c2ccc(C(F)(F)F)cc2)nc2c1CSCC2` [XAV939] + O=C(c1cc(Cc2n[nH]c(=O)c3ccccc23)ccc1F)N1CCN(C(=O)C2CC2)CC1 [Olaparib] (partner 8 µM) showed a relative viability of 0.292.
On the same count and under the same terms, the figure for `Oc1nc(-c2ccc(C(F)(F)F)cc2)nc2c1CSCC2` [XAV939] + CC(=O)c1c(C)c2cnc(Nc3ccc(N4CCNCC4)cn3)nc2n(C2CCCC2)c1=O [Palbociclib] (partner 0.5 µM) is 0.761.
As to `C=C1C(=O)O[C@@H](CCCCCCCC)[C@@H]1C(=O)O` [C-75] + CC(=O)c1c(C)c2cnc(Nc3ccc(N4CCNCC4)cn3)nc2n(C2CCCC2)c1=O [Palbociclib] (partner 0.5 µM), the relative viability is 1.03.

Still in this test, the particulars now being: first compound 8 µM.
`C=C1C(=O)O[C@@H](CCCCCCCC)[C@@H]1C(=O)O` [C-75] + Nc1nc2[nH]cc(CCc3ccc(C(=O)N[C@@H](CCC(=O)O)C(=O)O)cc3)c2c(=O)[nH]1 [Pemetrexed] (partner 0.2 µM) yielded a relative viability of 0.461.
For `C=C1C(=O)O[C@@H](CCCCCCCC)[C@@H]1C(=O)O` [C-75] + CC(=O)c1c(C)c2cnc(Nc3ccc(N4CCNCC4)cn3)nc2n(C2CCCC2)c1=O [Palbociclib] (partner 0.5 µM), the relative viability was 1.15.

For a further test, the system named is SK-LU-1. The test is described as above. Conditions: first compound 0.08 µM. The gist of the method:
as §1
Regarding `Oc1nc(-c2ccc(C(F)(F)F)cc2)nc2c1CSCC2` [XAV939] + O=C(CCCCCCC(=O)Nc1ccccc1)NO [Vorinostat] (partner 1 µM), the relative viability worked out at 0.872.
`C=C1C(=O)O[C@@H](CCCCCCCC)[C@@H]1C(=O)O` [C-75] + Nc1nc2[nH]cc(CCc3ccc(C(=O)N[C@@H](CCC(=O)O)C(=O)O)cc3)c2c(=O)[nH]1 [Pemetrexed] (partner 0.2 µM) had a relative viability of 0.984.
`Oc1nc(-c2ccc(C(F)(F)F)cc2)nc2c1CSCC2` [XAV939] + O=C(c1cc(Cc2n[nH]c(=O)c3ccccc23)ccc1F)N1CCN(C(=O)C2CC2)CC1 [Olaparib] (partner 8 µM): the relative viability came out at 0.5.
Consider `Oc1nc(-c2ccc(C(F)(F)F)cc2)nc2c1CSCC2` [XAV939] + CC(=O)c1c(C)c2cnc(Nc3ccc(N4CCNCC4)cn3)nc2n(C2CCCC2)c1=O [Palbociclib] (partner 0.5 µM), for which the relative viability worked out at 0.387.
On the same count and under the same terms, the result for `C=C1C(=O)O[C@@H](CCCCCCCC)[C@@H]1C(=O)O` [C-75] + CC(=O)c1c(C)c2cnc(Nc3ccc(N4CCNCC4)cn3)nc2n(C2CCCC2)c1=O [Palbociclib] (partner 0.5 µM) reads 0.384.

The test is the same for the next values; noted with them: first compound 0.253 µM.
The molecule `Oc1nc(-c2ccc(C(F)(F)F)cc2)nc2c1CSCC2` [XAV939] + O=C(CCCCCCC(=O)Nc1ccccc1)NO [Vorinostat] (partner 1 µM) had a relative viability of 0.755.
The same measure, in the same setting: the result for `C=C1C(=O)O[C@@H](CCCCCCCC)[C@@H]1C(=O)O` [C-75] + Nc1nc2[nH]cc(CCc3ccc(C(=O)N[C@@H](CCC(=O)O)C(=O)O)cc3)c2c(=O)[nH]1 [Pemetrexed] (partner 0.2 µM) reads 0.87; that for `Oc1nc(-c2ccc(C(F)(F)F)cc2)nc2c1CSCC2` [XAV939] + O=C(c1cc(Cc2n[nH]c(=O)c3ccccc23)ccc1F)N1CCN(C(=O)C2CC2)CC1 [Olaparib] (partner 8 µM), 0.481.
On the same count and under the same terms, the figure for `Oc1nc(-c2ccc(C(F)(F)F)cc2)nc2c1CSCC2` [XAV939] + CC(=O)c1c(C)c2cnc(Nc3ccc(N4CCNCC4)cn3)nc2n(C2CCCC2)c1=O [Palbociclib] (partner 0.5 µM) is 0.335.
`C=C1C(=O)O[C@@H](CCCCCCCC)[C@@H]1C(=O)O` [C-75] + CC(=O)c1c(C)c2cnc(Nc3ccc(N4CCNCC4)cn3)nc2n(C2CCCC2)c1=O [Palbociclib] (partner 0.5 µM) came in with a relative viability of 0.43.

The values are drawn from the supplement of paper PMC10307832.
